System: SCI pain
Details: in vivo

## NCC1(CC(=O)O)CCCCC1 [gabapentin]
  place preference in GFP (control AAV) SCI animals: induced place preference

— US20250382337A1 (UNIVERSITY OF MIAMI, priority 2022, published 2025)
